# Results published in US20090030086A1, “ANTIMICROBIAL AGENTS” (priority 2005, published 2009).
# Like-named read-outs stand apart in the source and are kept apart here.
# Assays:
# P. acnes NCTC 737 [1] = assay: MBC assay; assay type: cell-based, Propionibacterium acnes; conditions: for MBC: Cutibacterium acnes, NCTC737
# Method: (§1) The Propionibacterium spp organisms were cultured and maintained on Wilkins-Chalgren Anaerobe Medium (agar and broth) at pH 6.0; cultures were incubated anaerobically at 37° C. for 72 hours.
# (§2) This assay, normally carried out after an MIC assay, determines the minimum concentration of a compound that is lethal to the micro-organism being tested.
# (§3) These samples were then individually sub-cultured on non-selective agar medium, under the incubation conditions described above. Following incubation they were examined visually for bacterial growth.
# (§4) MIC, MBC and DDA assays, as described above, were carried out using a range of different benzoquinones and hydroquinones. Supplemented DDA assays, in the presence of salt and lipid, were also conducted.
# S. aureus ATCC 29213 [2] = assay: MIC assay; assay type: cell-based, Staphylococcus aureus; conditions: for MIC: Staphylococcus aureus
# Method: 1. Staphylococcus aureus—the principal staphylococcal test micro-organism used in these studies was Staphylococcus aureus ATCC 29213. This strain is the one recommended for QC/QA purposes in Minimum Inhibitory Concentration (MIC) assays by the US Clinical and Laboratory Standards Institute (formerly the NCCLS), an FDA-recognised body.
# (§5) The staphylococci and enterococci were cultured and maintained on Mueller-Hinton Medium (agar and broth) at pH 7.2; they were incubated aerobically at 37° C. for 24 hours.
# (§6) This is a standard international method for quantitatively assessing the antimicrobial activity of a compound in a liquid medium. The method used a 96-well microtitre plate, capable of holding about 200 μl of liquid per well. […] The culture media were as described above for the relevant test organisms.
# (§7) The wells were inoculated with a liquid suspension of freshly grown micro-organism and incubated under the conditions described above. After incubation, the microtitre plate was examined visually (with the aid of a light box) for cloudiness in each well, which would indicate microbial growth. The MIC value was recorded as the lowest concentration of test compound required to inhibit microbial growth, i.e., the lowest concentration for which the liquid in the well remained clear.
# (§8) The assays were conducted in duplicate and included both negative (culture medium only) and positive (culture medium, diluting solvent and inoculum) controls.
# (§9) The following experiments all used S. aureus ATCC 29213 as the test organism. MIC, MBC and DDA assays, as described above, were carried out using a range of different benzoquinones and hydroquinones. Supplemented DDA assays, in the presence of salt, lipid and blood, were also conducted.
# S. aureus ATCC 29213 [3] = assay: MBC assay; assay type: cell-based, Staphylococcus aureus; conditions: for MBC: Staphylococcus aureus
# Method: as §5, §2, §3, §9
# P. acnes NCTC 737 [4] = assay: Supplemented disc diffusion assay; assay type: cell-based, Propionibacterium acnes; conditions: for zone of inhibition at 200 µg/disc: Cutibacterium acnes, NCTC737, 72 h; for effect of lipid on antimicrobial activity: activity increases in the presence of lipid
# Method: as §1
# (§10) A sterile paper disc was impregnated with a sample of the test compound and a minimum of 30 minutes allowed for the solvents to evaporate as far as possible. The disc was then placed on an agar plate onto which the test micro-organism had been inoculated. The plate was then incubated under the conditions described above, following which it was examined visually for signs of bacterial growth. […] The diameter of this zone of “inhibition” was measured using a ProtoCOL™ automated zone sizer (Synbiosis, Cambridge, UK).
# (§11) Performance under these conditions can provide a more reliable indication of activity on topical application. For assays conducted using S. aureus strains, the supplements were defibrinated horse blood (5% v/v), lipid (Tween™ 80 at 1% v/v) and sodium chloride (100 mM). For those using Propionibacterium spp. strains, the supplements were lipid (Tween™ 80 at 1% v/v) and sodium chloride (100 mM).
# as §4
# (§12) For most DDA assays, 200 μg of each compound was loaded onto each disc.
# S. aureus ATCC 29213 [5] = assay: Supplemented disc diffusion assay; assay type: cell-based, Staphylococcus aureus; conditions: Staphylococcus aureus, ATCC29213, 24 h
# Method: as §5, §10, §11, §9, §12
# P. acnes NCTC 737 [6] = assay: Disc diffusion assay (DDA); assay type: cell-based, Propionibacterium acnes; conditions: Cutibacterium acnes
# Method: as §1, §10
# (§13) The area of the zone of inhibition was calculated from the measured zone diameter (D) using the formula π(D/2)^2.
# as §12
# S. aureus ATCC 29213 [7] = assay: Disc diffusion assay (DDA); assay type: cell-based, Staphylococcus aureus; conditions: Staphylococcus aureus
# Method: as §5, §10, §13, §12
# P. acnes NCTC 737 [8] = assay: MIC assay; assay type: cell-based, Propionibacterium acnes; conditions: for MIC: Cutibacterium acnes
# Method: 2. Propionibacterium spp.—the principal propionibacterial strain used in these studies was Propionibacterium acnes NCTC 737.
# as §1, §6, §7, §8, §4
# [9] = P. acnes NCTC 737, read-out: MBC
# [10] = ATCC29213, S. aureus ATCC 29213, Mueller-Hinton broth pH 7.2, aerobic, 37° C., 24 hours, read-out: MIC
# [11] = P. acnes NCTC 737, Tween 80 at 1% v/v, 200 μg per disc (2,6-dimethoxy-p-benzoquinone 100 μg), read-out: DDA + lipid
# [12] = P. acnes NCTC 737, sodium chloride 100 mM, 200 μg per disc (2,6-dimethoxy-p-benzoquinone 100 μg), read-out: DDA + salt
# [13] = S. aureus ATCC 29213, Tween 80 at 1% v/v, 200 μg per disc (thymoquinone 50 μg, 2,6-dimethoxy-p-benzoquinone 100 μg), read-out: DDA + lipid
# [14] = S. aureus ATCC 29213, defibrinated horse blood 5% v/v, 200 μg per disc (thymoquinone 50 μg, 2,6-dimethoxy-p-benzoquinone 100 μg), read-out: DDA + blood
# [15] = S. aureus ATCC 29213, sodium chloride 100 mM, 200 μg per disc (thymoquinone 50 μg, 2,6-dimethoxy-p-benzoquinone 100 μg), read-out: DDA + salt
# [16] = NCTC737, P. acnes NCTC 737, unsupplemented agar, 200 μg per disc (2,6-dimethoxy-p-benzoquinone 100 μg), read-out: DDA (diameter of zone of inhibition)
# [17] = ATCC29213, S. aureus ATCC 29213, unsupplemented agar, 200 μg per disc (thymoquinone 50 μg, 2,6-dimethoxy-p-benzoquinone 100 μg), read-out: DDA (diameter of zone of inhibition)
# [18] = NCTC737, P. acnes NCTC 737, Wilkins-Chalgren broth pH 6.0, anaerobic, 37° C., 72 hours, read-out: MIC
# [19] = NCTC737, read-out: DDA (diameter of zone of inhibition)
# [20] = ATCC29213, read-out: DDA (diameter of zone of inhibition)
Compound,MBC (P. acnes NCTC 737 [1]; [9]) [µg/mL],MIC/MBC ratio (P. acnes NCTC 737 [1]; P. acnes NCTC 737),MIC (S. aureus ATCC 29213 [2]; [10]) [µg/mL],MIC/MBC ratio (S. aureus ATCC 29213 [3]),"MBC (S. aureus ATCC 29213 [3]; ATCC29213, read-out: MBC) [µg/mL]",zone of inhibition at 200 µg/disc (P. acnes NCTC 737 [4]; [11]) [mm],zone of inhibition at 200 µg/disc (P. acnes NCTC 737 [4]; [12]) [mm],zone of inhibition at 200 µg/disc (S. aureus ATCC 29213 [5]; [13]) [mm],zone of inhibition at 200 µg/disc (S. aureus ATCC 29213 [5]; [14]) [mm],zone of inhibition at 200 µg/disc (S. aureus ATCC 29213 [5]; [15]) [mm],zone of inhibition at 200 µg/disc (P. acnes NCTC 737 [6]; [16]) [mm],zone of inhibition at 200 µg/disc (S. aureus ATCC 29213 [7]; [17]) [mm],MIC (P. acnes NCTC 737 [8]; [18]) [µg/mL],MBC (P. acnes NCTC 737 [1]) [µg/mL],"MIC (S. aureus ATCC 29213 [2]; ATCC29213, 24 h, pH 7.2) [µg/mL]",MBC (S. aureus ATCC 29213 [3]; ATCC29213) [µg/mL],zone of inhibition at 200 µg/disc (P. acnes NCTC 737 [4]; read-out: DDA + lipid) [mm],zone of inhibition at 200 µg/disc (P. acnes NCTC 737 [4]; read-out: DDA + salt) [mm],effect of lipid on antimicrobial activity (P. acnes NCTC 737 [4]; P. acnes NCTC 737),zone of inhibition at 200 µg/disc (S. aureus ATCC 29213 [5]; read-out: DDA + blood) [mm],further results
CC1=CC(=O)C(Cl)=CC1=O [2-chloro-5-methyl-p-benzoquinone],15.6,1,15.6,1,15.6,38.8,37.2,33.9,17.7,34.2,38.9,34.5,15.6,,,,,,,,
O=[N+]([O-])c1c(O)cccc1O [2-nitroresorcinol],> 250,<0.5,125,<0.5,> 250,0,12.7,0,0,12.8,0,10.5,125,,,,,,,,
CC1=CC(=O)C=CC1=O [2-methyl-p-benzoquinone],,0.5,,1,,,,,,,,,,31.2,15.6,15.6,48.9,42.6,potentiated,15.9,"zone of inhibition at 200 µg/disc (S. aureus ATCC 29213 [5]; read-out: DDA + lipid): 35.6 mm; zone of inhibition at 200 µg/disc (S. aureus ATCC 29213 [5]; read-out: DDA + salt): 35 mm; zone of inhibition at 200 µg/disc (P. acnes NCTC 737 [6]; [19]): 35.9 mm; zone of inhibition at 200 µg/disc (S. aureus ATCC 29213 [7]; [20]): 35.1 mm; activity against P. acnes NCTC 737 (in words) (P. acnes NCTC 737 [8]): strongly so; MIC (P. acnes NCTC 737 [8]; NCTC737, 72 h, pH 6): 15.6 µg/mL"
"CC1=C(Br)C(=O)C(C(C)C)=C(Br)C1=O [2,5-dibromo-6-isopropyl-3-methyl-p-benzoquinone]",,0.25,,0.5,,,,,,,,,,3.9,0.98,1.95,34.7,71.2,,19.3,"activity against S. aureus ATCC 29213 (in words) (S. aureus ATCC 29213 [2]): strongly so; zone of inhibition at 200 µg/disc (S. aureus ATCC 29213 [5]; read-out: DDA + lipid): 23 mm; zone of inhibition at 200 µg/disc (S. aureus ATCC 29213 [5]; read-out: DDA + salt): 42.3 mm; zone of inhibition at 200 µg/disc (P. acnes NCTC 737 [6]; [19]): > 90 mm; zone of inhibition at 200 µg/disc (S. aureus ATCC 29213 [7]; [20]): 39.5 mm; activity against P. acnes NCTC 737 (in words) (P. acnes NCTC 737 [8]): strongly so; MIC (P. acnes NCTC 737 [8]; NCTC737, 72 h, pH 6): 0.98 µg/mL"
"CC(C)(C)c1cc(O)c(O)c(C(C)(C)C)c1 [3,5-di-t-butylcatechol]",15.6,0.5,7.8,1,7.8,0,37.3,10.9,11.9,19.7,35.9,18.8,7.8,,,,,,,,
CC(C)(C)C1=CC(=O)C=CC1=O [2-t-butyl-p-benzoquinone],15.6,0.5,15.6,1,15.6,> 90,> 90,> 90,10.9,54.7,60.8,58.5,7.8,,,,,,potentiated,,
